Results taken from PubChem BioAssay (NCI).
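Dose response: 5 concentrations. Exposure: 48 h. Format: 96-well plates. Endpoint: linear interpolation; highest concentration if not reached. Definition used: TGI = concentration required for complete inhibition of growth.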

Key:
Experiment in all cases: NCI anticancer screen, dose series, 48 h
[1] = test system: BT-549 breast
[2] = test system: CCRF-CEM leukemia
[3] = test system: EKVX NSCLC
[4] = test system: HCT-116 colon
[5] = test system: MDA-MB-231 breast
[6] = test system: MOLT-4 leukemia
[7] = test system: NCI-H460 lung
[8] = test system: OVCAR-8 ovarian
[9] = test system: SF-268 CNS
[10] = test system: SK-MEL-2 melanoma
[11] = test system: SK-OV-3 ovarian
[12] = test system: SNB-19 CNS
[13] = test system: SR leukemia
[14] = test system: U251 CNS

Row | SMILES | TGI [1] | TGI [2] | TGI [3] | TGI [4] | TGI [5] | TGI [6] | TGI [7] | TGI [8] | TGI [9] | TGI [10] | TGI [11] | TGI [12] | TGI [13] | TGI [14]
1 | N#Cc1c(NC(=O)C(F)(F)F)sc2c3c(=O)c4ccccc4c(=O)c=3oc3ccccc3c12 | 53.3 µM | 12.5 µM | 65.4 µM | 29.1 µM | 67 µM | 34.3 µM | 36.5 µM | > 56 µM | 61.4 µM | 54.7 µM | 77.2 µM | 49.5 µM | 13.5 µM | 41.3 µM
2 | CC1=NN(c2nc(N)nc(C(C)Cl)n2)C(C)(C)C1 (configuration not stated) | > 100 µM | > 100 µM | > 100 µM | > 100 µM | > 100 µM | > 100 µM | > 100 µM | > 100 µM | > 100 µM | > 100 µM | > 100 µM | > 100 µM | > 100 µM | > 100 µM
3 | COC(=O)/C=C/c1ccc(OP(=O)(O)O)c(OC)c1 | > 100 µM | > 100 µM | > 100 µM | > 100 µM | > 100 µM | > 100 µM | > 100 µM | > 100 µM | > 100 µM | > 100 µM | > 100 µM | > 100 µM | > 100 µM | > 100 µM
4 | Cc1cc(N(CCC#N)CCC#N)ccc1/C(N=Nc1ccccc1)=N\NC(=O)c1cc(Cl)ccc1O | 57 µM | 96.3 µM | > 100 µM | 36.7 µM | 83 µM | 92.6 µM | 57.5 µM | 81.5 µM | > 100 µM | > 100 µM | > 100 µM | > 100 µM | 79.5 µM | > 100 µM
5 | CSc1nncc(-c2cc3c(c(SC)n2)CCCC3)n1 | > 100 µM | > 100 µM | > 100 µM | > 100 µM | > 100 µM | > 100 µM | > 100 µM | > 100 µM | > 100 µM | > 100 µM | > 100 µM | > 100 µM | > 100 µM | > 100 µM
6 | C[C@@H](CC(=O)OCc1ccccc1)OC1OC(COC(=O)C(C)(C)C)C(OC(=O)C(C)(C)C)C(OC(=O)C(C)(C)C)C1OC(=O)C(C)(C)C (some centres not stated) | > 100 µM | > 100 µM | > 100 µM | > 100 µM | > 100 µM | > 100 µM | > 100 µM | > 100 µM | > 100 µM | > 100 µM | > 100 µM | > 100 µM | > 100 µM | > 100 µM
7 | C=CCON(C(=O)OC(C)(C)C)C(C)(C)C | > 100 µM | > 100 µM | > 100 µM | > 100 µM | > 100 µM | > 100 µM | > 100 µM | > 100 µM | > 100 µM | > 100 µM | > 100 µM | > 100 µM | > 100 µM | > 100 µM
8 | CN=c1sc2c(n1C)C(=O)c1ccccc1C2=O | 3.58 µM | 44.4 µM | 24.3 µM | 9.1 µM | 33.7 µM | 26.5 µM | 8.01 µM | 15.3 µM | 14.5 µM | 6.14 µM | 77.9 µM | 10.1 µM | 8.97 µM | 10.5 µM
9 | CC(=O)c1ccc(N=NN2CCCC2)cc1 | > 100 µM | > 100 µM | > 100 µM | > 100 µM | > 100 µM | > 100 µM | > 100 µM | > 100 µM | > 100 µM | > 100 µM | > 100 µM | > 100 µM | > 100 µM | > 100 µM
10 | N#Cc1ccccc1OCCOc1ccccc1C#N | > 100 µM | > 100 µM | > 100 µM | > 100 µM | > 100 µM | > 100 µM | > 100 µM | > 100 µM | > 100 µM | > 100 µM | > 100 µM | > 100 µM | > 100 µM | > 100 µM
11 | O=c1[nH]c(N/N=C\C(O)C(O)C(O)C(O)CO)nc2ccccc12 (configuration not stated) | > 100 µM | > 100 µM | > 100 µM | > 100 µM | > 100 µM | > 100 µM | > 100 µM | > 100 µM | > 100 µM | > 100 µM | > 100 µM | > 100 µM | > 100 µM | > 100 µM
12 | CCOc1cnc(C(O)(c2ccccc2)c2ccccc2)o1 | > 100 µM | > 100 µM | > 100 µM | > 100 µM | > 100 µM | > 100 µM | > 100 µM | > 100 µM | > 100 µM | > 100 µM | > 100 µM | > 100 µM | > 100 µM | > 100 µM
13 | [B]C(=O)NC(CC(C)C)C(=O)NCC(=O)NC1c2ccsc2C(=O)C1O (configuration not stated) (tested in a mixture with another compound) | > 100 µM | > 31.6 µM | > 100 µM | > 100 µM | > 100 µM | > 100 µM | > 31.6 µM | > 100 µM | > 100 µM | > 100 µM | > 100 µM | > 100 µM | > 100 µM | > 100 µM
14 | COC(=O)[C@H](Cc1ccccc1)NC(=O)c1ccc(CNC(=O)/C=C/c2csc(-c3ccccc3)n2)cc1 | > 100 µM | > 100 µM | > 88.5 µM | > 51.7 µM | 57.7 µM | 6.68 µM | 42.6 µM | > 65.4 µM | > 100 µM | 9.1 µM | > 65.5 µM | 39.6 µM | > 21.5 µM | > 72.1 µM
15 | CC(C)(C)OC(=O)N(CCCCNC(=O)C(F)(F)F)CCCNC(=O)C(F)(F)F | > 100 µM | > 100 µM | > 100 µM | > 100 µM | > 100 µM | > 100 µM | > 100 µM | > 100 µM | > 100 µM | > 100 µM | > 100 µM | > 100 µM | > 100 µM | > 100 µM
16 | S=C1Cc2c(-c3ccccc3)cc(-c3cccc(Cl)c3)nc2-c2ccccc2N1 | 19.5 µM | 30.5 µM | 24.4 µM | 6.53 µM | 5.66 µM | > 90.2 µM | 7.11 µM | 4.39 µM | 17.7 µM | 28.4 µM | 17.4 µM | 7.97 µM | 46.9 µM | 3.31 µM
17 | O=c1cc(Nc2cccc(O)c2)[nH]c(=O)[nH]1 | > 100 µM | > 100 µM | > 100 µM | > 100 µM | > 100 µM | > 100 µM | > 100 µM | > 100 µM | > 100 µM | > 100 µM | > 100 µM | > 100 µM | > 100 µM | > 100 µM
18 | Cc1nc2sc3cccc(Cl)c3n2c(=O)c1N=Nc1ccc(Cl)cc1 | > 100 µM | > 100 µM | > 100 µM | > 100 µM | > 100 µM | > 100 µM | > 100 µM | > 100 µM | > 100 µM | > 100 µM | > 100 µM | > 100 µM | > 100 µM | > 100 µM
